Measurements: patent publication US10376481B2, “Compounds and methods for inhibiting NHE-mediated antiport in the treatment of disorders associated with fluid retention or salt overload and gastrointestinal tract disorders” (ARDELYX, INC, priority 2012, dated 2019)

What was measured:
Plasma PK = assay type: in vivo, Sprague-Dawley rats; details: Sprague-Dawley, rat plasma, oral gavage, nominal dose 15 mg/kg, mean of n=3
Procedure: Sprague-Dawley rats (n=3) were dosed with test compound by oral gavage. Blood samples were collected at 0.5, 1, 2 and 4 h by retro-orbital bleeds and processed to plasma using K2EDTA as an anticoagulant. Plasma samples were treated with acetonitrile containing an internal standard and precipitated proteins were removed by centrifugation. Supernatants were analyzed by LC-MS/MS and compound concentrations were determined by interpolation from a standard calibration curve prepared in plasma. Accurate recovery of quality control samples was confirmed to accept each analytical run. Table 5 illustrates data from the pharmacokinetic profiling of an example compound, for which pharmacokinetic parameters were determined.

[1] = system: apical acid secretion, human ileum monolayer culture; test: Sustained inhibition of apical acid secretion in human organoid monolayer cell cultures (ileum); assay type: cell-based; details: 1 μM apical dosing day 6, apical media pH day 8, inhibition of apical acid secretion vs DMSO
Procedure: (§1) Basal media (BM) consisted of advanced DMEM/F12 containing 10 mM HEPES (Invitrogen, 15630-080), 1:100 Glutamax (Invitrogen, 35050-061), and 1:100 penicillin/streptomycin (Invitrogen, 15140-122). […] Growth factors used included 50 ng per mL mouse EGF (Peprotech, 315-09), 100 ng per mL mouse noggin (Peprotech, 250-38), 500 ng per mL human R-spondin 1 (R&D, 4645-RS), 100 ng per mL mouse Wnt-3a (R&D, 1324-WN), 20 μM Y-27632 (Tocris, 1254), 10 mM nicotinamide (Sigma, N0636), 500 nM A83-01 (Tocris, 2939), 10 μM SB202190 (Tocris, 1264). Transwells were 0.4 μm pore polyester membrane 24-well Transwell inserts (Corning). Cultures were incubated at 37° C. in 5% CO2.
Human ileum organoids were cultured in WENRNAS (Wnt, EGF, noggin, R-spondin1, Nicotinamide, A83-01, SB202190) and typically grown for 7-12 days before being used to plate monolayer cultures. On day 0, organoid cultures embedded in Matrigel were treated with TrypLE Express to break organoids into small pieces and/or single cells. […]
Each human ileum monolayer culture well was washed twice with fresh SBM on the apical side on day 6 before compound dosing. […] On day 8, apical media pH was measured by pH meter, to determine the ability of example compounds to produce sustained inhibition of NHE3 activity in a human monolayer culture system by preventing proton secretion into the apical compartment.

[2] = system: tight junction permeability, human duodenum monolayer culture; test: Increased trans-epithelial resistance (TEER) in human organoid monolayer cell cultures; assay type: cell-based; details: 1 μM apical, baseline corrected
Procedure: as §1
Human duodenum organoids were cultured in WENRNAS (Wnt, EGF, noggin, R-spondin1, Nicotinamide, A83-01, SB202190) and typically grown for 7-12 days before being used to plate monolayer cultures. […]
Each human duodenum monolayer culture well was washed twice with fresh SBM on the apical side on day 6 or day 7 before dosing. […] Transepithelial electrical resistance (TEER) was used as a quantitative technique to measure of tight junction permeability. TEER values were recorded (MERS00002, Millipore) before dosing and 30 mins and 1 hr after dosing for all wells. […] Baseline corrected TEER for each example compound was compared to the average of the DMSO wells and expressed as a percent TEER of vehicle control.

[3] = system: apical acid secretion, human duodenum monolayer culture; test: Sustained inhibition of apical acid secretion in human organoid monolayer cell cultures (duodenum); assay type: cell-based; details: 1 μM apical dosing, inhibition of apical acid secretion vs DMSO

Cmax (Plasma PK; LLOQ 0.2 ng/mL): 1 ng/mL
AUC (Plasma PK; samples 0.5-4 h): < 3 ng·h/mL
SMILES: CN(C)[C@H]1Cc2c(Cl)cc(Cl)cc2[C@@H]1Oc1ccc(S(=O)(=O)NCCOCCOCCNC(=O)NCCCCNC(=O)NCCOCCOCCNS(=O)(=O)c2ccc(O[C@H]3c4cc(Cl)cc(Cl)c4C[C@@H]3N(C)C)cc2)cc1 [Example 1, (S,S)—N,N′-(10,17-dioxo-3,6,21,24-tetraoxa-9,11,16,18-tetraazahexacosane-1,26-diyl)bis(4-((1S,2S)-4,6-dichloro-2-(dimethylamino)-2,3-dihydro-1H-inden-1-yloxy)benzenesulfonamide)]
% inhibition (ileum) [1]: B (50-70%)
TEER at 30 minutes (% of Vehicle) ([2]; 30 mins after dosing): B (100-130%)
TEER at 60 minutes (% of Vehicle) ([2]; 1 hr after dosing): B (100-130%)
% inhibition (duodenum) [3]: C (>70%)
